Measured values reported in publication PMC11637875, “Discovery of novel PARP1/NRP1 dual-targeting inhibitors with strong antitumor potency” (Frontiers in Pharmacology, 2024).

How the values were obtained:
[1] = target: AKT1 (Homo sapiens, UniProt P31749); assay: Selectivity profile (123 kinase panel); format: biochemical
[2] = target: AurB (Homo sapiens, UniProt Q96GD4); assay: Selectivity profile (123 kinase panel); format: biochemical
[3] = target: AurC (Homo sapiens, UniProt Q9UQB9); assay: Selectivity profile (123 kinase panel); format: biochemical
[4] = target: BLK (Homo sapiens, UniProt P51451); assay: Selectivity profile (123 kinase panel); format: biochemical
[5] = target: BRAF (Homo sapiens, UniProt P15056); assay: Selectivity profile (123 kinase panel); format: biochemical
[6] = target: BRSK1 (Homo sapiens, UniProt Q8TDC3); assay: Selectivity profile (123 kinase panel); format: biochemical
[7] = target: CLK4 (Homo sapiens, UniProt Q9HAZ1); assay: Selectivity profile (123 kinase panel); format: biochemical
[8] = target: CHK1 (Homo sapiens, UniProt O14757); assay: Selectivity profile (123 kinase panel); format: biochemical
[9] = target: DYRK4 (Homo sapiens, UniProt Q9NR20); assay: Selectivity profile (123 kinase panel); format: biochemical
[10] = target: FLT1 (Homo sapiens, UniProt P17948); assay: Selectivity profile (123 kinase panel); format: biochemical
[11] = target: FLT3 (Homo sapiens, UniProt P36888); assay: Selectivity profile (123 kinase panel); format: biochemical
[12] = target: FLT4 (Homo sapiens, UniProt P35916); assay: Selectivity profile (123 kinase panel); format: biochemical
[13] = target: GLK (Homo sapiens, UniProt Q8IVH8); assay: Selectivity profile (123 kinase panel); format: biochemical
[14] = target: GSK3α (Homo sapiens, UniProt P49840); assay: Selectivity profile (123 kinase panel); format: biochemical
[15] = target: HIPK1 (Homo sapiens, UniProt Q86Z02); assay: Selectivity profile (123 kinase panel); format: biochemical
[16] = target: HIPK3 (Homo sapiens, UniProt Q9H422); assay: Selectivity profile (123 kinase panel); format: biochemical
[17] = target: HIPK4 (Homo sapiens, UniProt Q8NE63); assay: Selectivity profile (123 kinase panel); format: biochemical
[18] = target: ITK (Homo sapiens, UniProt Q08881); assay: Selectivity profile (123 kinase panel); format: biochemical
[19] = target: KHS (Homo sapiens, UniProt Q9Y4K4); assay: Selectivity profile (123 kinase panel); format: biochemical
[20] = target: LYNa (Homo sapiens, UniProt P07948); assay: Selectivity profile (123 kinase panel); format: biochemical
[21] = target: MARK4 (Homo sapiens, UniProt Q96L34); assay: Selectivity profile (123 kinase panel); format: biochemical
[22] = target: MET (Homo sapiens, UniProt P08581); assay: Selectivity profile (123 kinase panel); format: biochemical
[23] = target: MSK1 (Homo sapiens, UniProt O75582); assay: Selectivity profile (123 kinase panel); format: biochemical
[24] = target: PARP2 (Homo sapiens, UniProt Q9UGN5); assay: Selectivity profile (other isoforms of PARP and NRP family); format: biochemical
[25] = target: T1, NRP1 (Homo sapiens, UniProt O14786); assay: In vitro NRP1 inhibition assay (125I-VEGF-A binding displacement, NRP1-transfected HUVEC cells); settings: 125I-VEGF-A165 binding competition, 2 h, 4°C
T1 construct: expressed in transfected cells; host or cells: HUVEC, adenovirus NRP1
Experimental: The method was performed as described previously ([Jarvis et al., 2010]). Radiolabeled binding displacement experiments were performed as described previously ([Jia et al., 2006]). Confluent adenovirus NRP1-transfected HUVEC cells in 96-well plates were washed twice with PBS. At 4°C various concentrations of compounds diluted in binding medium (Dulbecco’s modified Eagle’s medium, 25 mM HEPES, pH 7.3, containing 0.1% BSA) were added, followed by addition of the indicated concentration of ^125I-VEGF-A (1,200–1800 Ci/mmol, GE Healthcare, United Kingdom). After 2 h of incubation at 4°C, the medium was aspirated, and washed four times with cold phosphate-buffered saline. The cells were lysed with 0.25 M NaOH, 0.5% SDS solution, and the bound radioactivity of the lysates was measured. IC50 values were calculated from the competition curves of the compounds in the ^125I-VEGF-A165 binding assay using GraphPad Prism 9 software. Using log(inhibitors) vs response-Variable slope equation in the GraphPad Prism 9 to fit the curves. The equation was as follows: (Top and Bottom are the responses, respectively, at the top and bottom of the curve, Y is the inhibitory response at a given compound concentration X, and the Hillslope describes the steepness of the curve.) Y=Bottom+Top−Bottom/1+10^logIC50−xHillslope

[26] = system: MDA-MB-231 xenograft tumor; assay: In vivo antitumor assay; parameters: species or system BALB/c nude mice; settings: for body weight (g) in mice, mean / tumor volume (mm^3), mean: 5 mg/kg intraperitoneally every 3 days, n = 6
Experimental: Twenty-four female BALB/c nude mice (body weight 16–20 g) at 4–6 weeks old were purchased from Changzhou Cavens Experimental Animal Limited Company (Changzhou, China). Mice were adaptively housed for 1 week in a specific pathogen-free (SPF) environment with a temperature of 25°C ± 2°C, a 12-hour light/dark cycle, and free access to food and water. MDA-MB-231 breast cancer cells (200 μL, 1×10^7 cells) were suspended in PBS to formulate cell suspension, and 0.1 mL of cells were injected into the axilla of the left forelimb of mice by subcutaneous injection. […] Equal concentrations of drug-free PBS buffer were used for the vehicle group. Each group was administered every 3 days and the body weight and tumor size of the mice were recorded. Mice were executed when the tumor volume approached 2000 mm^3. Tumor volumes of all mice were measured using vernier calipers. The mice were placed belly up and the longest diameter of the tumor was measured with the inner bayonet of a vernier caliper, and the shortest transverse diameter perpendicular to the diameter was measured with the inner bayonet of a vernier caliper and recorded. Tumor volume was estimated according to the following formula: (c × c × d)/2 (c, the smallest diameter; d, the largest diameter). All animal experiments were performed and approved by the Ethics Committee of China Pharmaceutical University.

T1 sequence (O14786 22-923): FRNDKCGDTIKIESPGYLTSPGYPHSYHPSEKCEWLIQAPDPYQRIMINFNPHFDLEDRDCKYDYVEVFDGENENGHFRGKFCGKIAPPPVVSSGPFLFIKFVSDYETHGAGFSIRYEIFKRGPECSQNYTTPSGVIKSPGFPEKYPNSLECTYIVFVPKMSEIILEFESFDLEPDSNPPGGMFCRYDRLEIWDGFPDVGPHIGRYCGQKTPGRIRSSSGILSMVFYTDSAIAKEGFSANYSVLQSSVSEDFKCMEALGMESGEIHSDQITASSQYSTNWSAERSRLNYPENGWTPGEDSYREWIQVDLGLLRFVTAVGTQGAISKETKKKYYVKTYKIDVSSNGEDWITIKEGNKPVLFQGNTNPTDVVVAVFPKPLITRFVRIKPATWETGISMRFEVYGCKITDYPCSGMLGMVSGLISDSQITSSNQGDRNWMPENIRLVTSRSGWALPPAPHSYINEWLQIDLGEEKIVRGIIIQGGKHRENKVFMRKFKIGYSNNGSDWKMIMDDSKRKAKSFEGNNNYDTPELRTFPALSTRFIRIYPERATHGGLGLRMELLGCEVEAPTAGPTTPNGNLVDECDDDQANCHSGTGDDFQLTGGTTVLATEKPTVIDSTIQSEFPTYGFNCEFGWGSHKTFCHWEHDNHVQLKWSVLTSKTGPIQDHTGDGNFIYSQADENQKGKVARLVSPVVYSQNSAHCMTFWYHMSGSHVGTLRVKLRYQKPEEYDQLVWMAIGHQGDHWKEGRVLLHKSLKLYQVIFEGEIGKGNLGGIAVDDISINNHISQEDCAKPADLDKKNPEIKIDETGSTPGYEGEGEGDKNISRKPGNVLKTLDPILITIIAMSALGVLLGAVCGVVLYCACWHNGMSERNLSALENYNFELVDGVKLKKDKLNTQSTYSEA
FLT3, sequence (P36888 27-993, species assumed): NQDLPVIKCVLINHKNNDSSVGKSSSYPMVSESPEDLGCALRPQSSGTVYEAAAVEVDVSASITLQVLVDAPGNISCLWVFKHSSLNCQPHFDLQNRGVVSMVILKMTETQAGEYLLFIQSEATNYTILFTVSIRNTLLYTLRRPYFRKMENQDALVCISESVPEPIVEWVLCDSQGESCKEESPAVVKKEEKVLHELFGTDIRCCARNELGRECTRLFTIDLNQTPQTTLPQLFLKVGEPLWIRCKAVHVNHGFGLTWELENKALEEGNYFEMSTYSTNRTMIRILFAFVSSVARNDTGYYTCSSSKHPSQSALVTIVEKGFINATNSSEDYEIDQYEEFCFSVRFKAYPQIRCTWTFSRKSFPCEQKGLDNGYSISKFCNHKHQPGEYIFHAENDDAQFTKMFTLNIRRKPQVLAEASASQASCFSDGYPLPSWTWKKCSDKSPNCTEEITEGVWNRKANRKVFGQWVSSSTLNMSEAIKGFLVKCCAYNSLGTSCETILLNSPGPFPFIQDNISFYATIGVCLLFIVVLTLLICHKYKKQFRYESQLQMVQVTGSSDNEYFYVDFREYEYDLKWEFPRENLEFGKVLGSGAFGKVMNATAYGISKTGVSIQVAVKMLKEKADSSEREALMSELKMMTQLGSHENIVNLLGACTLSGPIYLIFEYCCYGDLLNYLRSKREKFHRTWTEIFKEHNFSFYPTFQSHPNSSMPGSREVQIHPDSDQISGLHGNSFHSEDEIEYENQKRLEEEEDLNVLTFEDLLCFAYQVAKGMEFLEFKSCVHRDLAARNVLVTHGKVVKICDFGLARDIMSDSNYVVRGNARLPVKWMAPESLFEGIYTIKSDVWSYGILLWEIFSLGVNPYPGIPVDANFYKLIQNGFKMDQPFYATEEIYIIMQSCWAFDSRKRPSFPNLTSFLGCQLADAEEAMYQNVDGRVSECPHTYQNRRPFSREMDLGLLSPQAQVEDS
CHK1, sequence (O14757 whole entry): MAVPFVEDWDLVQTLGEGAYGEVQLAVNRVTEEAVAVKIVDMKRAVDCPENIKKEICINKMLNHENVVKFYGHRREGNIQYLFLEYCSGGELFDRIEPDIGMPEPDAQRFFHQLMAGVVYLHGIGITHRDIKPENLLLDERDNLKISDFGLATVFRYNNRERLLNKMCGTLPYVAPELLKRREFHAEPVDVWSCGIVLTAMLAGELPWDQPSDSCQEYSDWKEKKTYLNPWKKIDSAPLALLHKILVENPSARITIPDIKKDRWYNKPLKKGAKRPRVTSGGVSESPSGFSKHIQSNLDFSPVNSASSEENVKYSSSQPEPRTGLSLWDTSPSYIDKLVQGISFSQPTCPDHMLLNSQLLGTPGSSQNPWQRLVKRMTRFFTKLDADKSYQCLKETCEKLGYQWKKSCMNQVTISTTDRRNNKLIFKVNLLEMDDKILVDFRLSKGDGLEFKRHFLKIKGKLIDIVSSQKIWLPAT
MARK4, sequence (Q96L34 whole entry): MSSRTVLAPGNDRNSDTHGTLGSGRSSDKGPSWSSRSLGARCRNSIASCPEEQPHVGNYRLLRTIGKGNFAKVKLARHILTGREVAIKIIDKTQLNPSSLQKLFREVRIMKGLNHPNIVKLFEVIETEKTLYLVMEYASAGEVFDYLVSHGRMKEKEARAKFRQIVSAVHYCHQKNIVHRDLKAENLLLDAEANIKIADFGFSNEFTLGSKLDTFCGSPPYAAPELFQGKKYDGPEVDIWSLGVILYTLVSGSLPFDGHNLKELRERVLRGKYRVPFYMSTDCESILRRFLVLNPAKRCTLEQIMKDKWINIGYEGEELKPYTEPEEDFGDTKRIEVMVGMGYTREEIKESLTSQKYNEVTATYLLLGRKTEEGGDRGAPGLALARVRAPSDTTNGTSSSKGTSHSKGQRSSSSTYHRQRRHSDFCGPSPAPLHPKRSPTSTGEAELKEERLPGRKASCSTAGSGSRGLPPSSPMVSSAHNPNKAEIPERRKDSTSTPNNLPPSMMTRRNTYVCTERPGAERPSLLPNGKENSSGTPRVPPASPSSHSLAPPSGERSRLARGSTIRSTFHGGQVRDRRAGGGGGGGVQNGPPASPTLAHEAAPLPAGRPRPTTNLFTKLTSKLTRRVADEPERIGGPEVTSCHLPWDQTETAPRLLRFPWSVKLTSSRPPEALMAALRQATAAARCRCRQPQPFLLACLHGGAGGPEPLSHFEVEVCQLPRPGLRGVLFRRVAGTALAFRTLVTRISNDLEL
AurC, sequence (Q9UQB9 whole entry): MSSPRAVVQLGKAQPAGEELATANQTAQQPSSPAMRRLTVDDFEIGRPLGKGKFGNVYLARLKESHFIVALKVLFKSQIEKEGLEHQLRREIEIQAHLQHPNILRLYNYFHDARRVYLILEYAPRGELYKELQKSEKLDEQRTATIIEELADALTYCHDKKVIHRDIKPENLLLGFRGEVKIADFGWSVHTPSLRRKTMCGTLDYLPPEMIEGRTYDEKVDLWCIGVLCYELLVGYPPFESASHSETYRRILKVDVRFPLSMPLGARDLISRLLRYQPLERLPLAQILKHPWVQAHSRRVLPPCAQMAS
GLK, sequence (Q8IVH8 whole entry): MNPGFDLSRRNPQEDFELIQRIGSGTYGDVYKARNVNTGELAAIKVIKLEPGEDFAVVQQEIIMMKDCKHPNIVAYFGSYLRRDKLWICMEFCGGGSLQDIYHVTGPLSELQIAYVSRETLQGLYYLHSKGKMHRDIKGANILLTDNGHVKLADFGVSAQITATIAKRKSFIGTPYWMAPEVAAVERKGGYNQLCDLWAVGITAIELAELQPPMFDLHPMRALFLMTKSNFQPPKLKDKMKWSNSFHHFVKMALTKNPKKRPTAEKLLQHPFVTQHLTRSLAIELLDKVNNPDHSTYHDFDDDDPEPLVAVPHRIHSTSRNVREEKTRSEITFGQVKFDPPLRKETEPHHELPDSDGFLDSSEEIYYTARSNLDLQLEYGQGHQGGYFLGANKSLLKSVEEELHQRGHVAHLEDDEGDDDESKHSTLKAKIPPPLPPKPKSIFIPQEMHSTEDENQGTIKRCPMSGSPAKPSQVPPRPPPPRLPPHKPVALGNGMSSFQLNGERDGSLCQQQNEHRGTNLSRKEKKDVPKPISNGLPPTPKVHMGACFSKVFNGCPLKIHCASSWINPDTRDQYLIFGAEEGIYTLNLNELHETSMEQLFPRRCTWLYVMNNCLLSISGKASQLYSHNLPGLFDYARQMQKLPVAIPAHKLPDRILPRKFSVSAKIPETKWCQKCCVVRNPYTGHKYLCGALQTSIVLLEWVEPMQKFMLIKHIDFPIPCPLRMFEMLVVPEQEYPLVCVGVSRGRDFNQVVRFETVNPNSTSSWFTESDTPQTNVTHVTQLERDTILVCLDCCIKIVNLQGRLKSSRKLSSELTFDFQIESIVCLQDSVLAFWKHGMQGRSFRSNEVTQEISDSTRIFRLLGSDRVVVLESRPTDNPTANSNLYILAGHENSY
AKT1, sequence (P31749 whole entry): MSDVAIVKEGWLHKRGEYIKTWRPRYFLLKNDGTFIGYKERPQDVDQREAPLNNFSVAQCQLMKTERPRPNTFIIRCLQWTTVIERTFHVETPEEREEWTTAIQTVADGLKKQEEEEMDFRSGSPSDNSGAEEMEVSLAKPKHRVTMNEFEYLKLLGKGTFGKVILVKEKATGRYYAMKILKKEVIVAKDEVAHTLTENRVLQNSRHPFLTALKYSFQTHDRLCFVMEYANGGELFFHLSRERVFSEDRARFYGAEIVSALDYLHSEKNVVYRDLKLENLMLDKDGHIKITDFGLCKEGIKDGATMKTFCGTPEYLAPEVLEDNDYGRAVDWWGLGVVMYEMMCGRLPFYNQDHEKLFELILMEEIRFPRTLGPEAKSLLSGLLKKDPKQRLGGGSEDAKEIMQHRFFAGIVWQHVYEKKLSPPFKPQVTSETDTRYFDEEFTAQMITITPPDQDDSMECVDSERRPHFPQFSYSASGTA

With `NC(N)=NCCC[C@H](NCN1CCN(C(=O)c2cc(Cc3n[nH]c(=O)c4ccccc34)ccc2F)CC1)C(=O)O` [PPNR-4] the IC50 [1] was > 10 µM, the IC50 [2] was > 10 µM and the IC50 [3] was > 10 µM. For the same compound, the IC50 [4] was > 10 µM, the IC50 [5] was > 10 µM and the IC50 [6] was > 10 µM. The IC50 [7] was > 10 µM, the IC50 [8] was > 10 µM and the IC50 [9] was > 10 µM. For the same compound, the IC50 [10] was > 10 µM, the IC50 [11] was > 10 µM and the IC50 [12] was > 10 µM. The IC50 [13] was > 10 µM, the IC50 [14] was > 10 µM and the IC50 [15] was > 10 µM. The IC50 [16] was > 10 µM, the IC50 [17] was > 10 µM and the IC50 [18] was > 10 µM. For the same compound, the IC50 [19] was > 10 µM, the IC50 [20] was > 10 µM and the IC50 [21] was > 10 µM. The IC50 [22] was > 10 µM, the IC50 [23] was > 10 µM and the IC50 [24] was > 10 µM. For the same compound, the IC50 [25] was 0.0245 ± 0.00216 µM, the “inhibitory effect on tumor volume growth” value ([26]; 5 mg/kg, in comparison to the olaparib or EG00229-treated groups) was “more remarkable inhibitory effect on tumor volume growth” and the “body weight (g) in mice, mean” value ([26]; day 0) was 18.41 g. The “tumor volume (mm^3), mean” value ([26]; day 0) was 99 mm^3, the “body weight (g) in mice, mean” value ([26]; day 3) was 18.62 g and the “tumor volume (mm^3), mean” value ([26]; day 3) was 155 mm^3. For the same compound, the “body weight (g) in mice, mean” value ([26]; day 6) was 18.85 g, the “tumor volume (mm^3), mean” value ([26]; day 6) was 196 mm^3 and the “body weight (g) in mice, mean” value ([26]; day 9) was 19.07 g. The “tumor volume (mm^3), mean” value ([26]; day 9) was 253 mm^3, the “body weight (g) in mice, mean” value ([26]; day 12) was 19.33 g and the “tumor volume (mm^3), mean” value ([26]; day 12) was 226 mm^3.
